# According to patent US20070093493A1, “Treatment of benign prostatic hypertrophy and lower urinary tract symptoms” (LILLY ICOS LLC, priority 2005, published 2007):
# Columns and labels:
# Type in all cases: in vivo, human
# [1] = test system: men suffering from moderate to severe LUTS secondary to BPH; assay: randomized, double-blind, placebo-controlled, parallel-group, dose-escalation study, once a day dosing: efficacy in LUTS secondary to BPH
# Method: (§1) The efficacy and safety of Compound (I) administered once a day for LUTS secondary to BPH in male humans was tested. In particular, the efficacy and safety of Compound (I) dosed once a day was assessed in men suffering from moderate to severe LUTS secondary to BPH in a randomized, double-blind, placebo-controlled, parallel-group, dose-escalation study. Patients were treated with placebo for four weeks (single blind) to evaluate treatment compliance and establish baseline International Prostate Symptom Score (IPSS) and uroflowmetry values. After stratification by baseline IPSS (13-19, moderate LUTS; 20-35, severe LUTS), geographic region, and prior α-blocker therapy, 281 men were randomly assigned to two groups: (1) Compound (I) (5 mg for 6 weeks followed by dose escalation to 20 mg for 6 weeks) or (2) placebo (12 weeks). The primary efficacy end point was change in IPSS at 6 and 12 weeks. Secondary efficacy endpoints included changes in IPSS Quality of Life (QoL) index, BPH Impact Index (BII), uroflowmetry values, and a Global Assessment Question (LUTS GAQ) (Has the treatment you have been taking since your last visit improved your urinary symptoms?). Responses to Compound (I) 5 mg (6 weeks) or Compound (I) 5 mg followed by 20 mg (5/20 mg; 12 weeks total) were compared with placebo using ANCOVA (IPSS, BII, uroflowmetry values) and logistic linear regression (LUTS GAQ) models.
# [2] = test system: men with LUTS/BPH who were sexually active and also had erectile dysfunction; assay: same clinical study: erectile function (IIEF EF domain) in the subset with erectile dysfunction; details: for increase in International Index of Erectile Function (IIEF) EF domain score: LS Means, p<0.001
# Method: The efficacy and safety of Compound (I) administered once a day for LUTS secondary to BPH in male humans was tested. In particular, the efficacy and safety of Compound (I) dosed once a day was assessed in men suffering from moderate to severe LUTS secondary to BPH in a randomized, double-blind, placebo-controlled, parallel-group, dose-escalation study.
# as §1, with “Patients” for “The efficacy and safety of Compound (I) administered once a day for LUTS secondary to BPH in male humans was tested. In particular, the efficacy and safety of Compound (I) dosed once a day was assessed in men suffering from moderate to severe LUTS secondary to BPH in a randomized, double-blind, placebo-controlled, parallel-group, dose-escalation study. Patients”
# At 6 weeks (5 mg) and 12 weeks (5/20 mg) Compound (I) improved change from baseline scores for IPSS, IPSS QoL, BII, and LUTS GAQ compared with placebo. Peak flow rate (Qmax) changes were similar in placebo and Compound (I) treatment groups.
# [3] = test system: men suffering from moderate to severe LUTS secondary to BPH; assay: same clinical study: safety / tolerability of once a day dosing; details: dosed once a day, 5 mg then 20 mg
# Method: as §1
# [4] = at 6 weeks (5 mg) and 12 weeks (5/20 mg), once a day, men
smiles,measurement,setting,value
"CN1CC(=O)N2[C@H](c3ccc4c(c3)OCO4)c3[nH]c4ccccc4c3C[C@@H]2C1=O [Compound (I), (6R,12aR)-2,3,6,7,12,12a-hexahydro-2-methyl-6-(3,4-methylenedioxyphenyl)pyrazino[2′,1′:6:1]pyrido[3,4-b]indole-1,4-dione]",LUTS GAQ compared with placebo,[1]; [4],improved
same,change from baseline score for BII compared with placebo,[1]; [4],improved
same,change from baseline score for IPSS QoL compared with placebo,[1]; [4],improved
same,change from baseline score for IPSS compared with placebo,[1]; [4],improved
same,efficacy in the treatment of LUTS secondary to BPH,"[1]; dosed once a day, summary",statistically significant and clinically meaningful efficacy
same,Peak flow rate (Qmax) changes versus placebo,"[1]; uroflowmetry, placebo and Compound (I) treatment groups",similar
same,increase in International Index of Erectile Function (IIEF) EF domain score,"[2]; 5 mg once a day, 6 weeks, vs. 0.6 placebo",6.0
same,increase in International Index of Erectile Function (IIEF) EF domain score,"[2]; 5/20 mg once a day, 12 weeks total, vs. 1.4 placebo",7.7
same,erectile function in men with both LUTS and MED,"[2]; dosed once a day, summary",improved erectile function
same,tolerability,[3],well tolerated
